Data on eight compounds can be found in patent US20190322643A1 (Georgia State University Research Foundation, Inc., priority 2016, published 2019).

A value given as a limit tells only on which side of the number the result lay.

Test [1] addresses T1, Mouse histone methyltransferase G9a (969-1263) (Mus musculus, UniProt Q9Z148).
T1 construct: The 6His-sumo mG9a (969-1263) protein was purified using the following procedure; 6His-sumo (cleaved yes); made in house; host or cells: Escherichia coli BL21 (DE3)
T1 sequence (Q9Z148 969-1263): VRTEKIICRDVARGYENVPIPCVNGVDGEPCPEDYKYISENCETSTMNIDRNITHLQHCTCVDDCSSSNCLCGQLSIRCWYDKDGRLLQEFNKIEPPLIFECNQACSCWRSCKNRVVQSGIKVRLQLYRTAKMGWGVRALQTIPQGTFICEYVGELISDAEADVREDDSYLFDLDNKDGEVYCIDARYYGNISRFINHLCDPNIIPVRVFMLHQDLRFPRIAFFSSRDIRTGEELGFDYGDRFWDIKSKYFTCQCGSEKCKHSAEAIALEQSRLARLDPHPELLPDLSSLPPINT
The test can be described thus: MALDI-TOF methylation study of G9a inhibition. The conditions noted are these: inhibitors at 5 μM concentration for 30 min. It counts as biochemical. How it is done:
Mouse histone methyltransferase G9a (969-1263) cDNA was amplified from the cDNA of BALB/c mouse thymus, and the fragment was sub-cloned into a vector with a 6His-sumo tag. […] The 6His-sumo mG9a (969-1263) protein was purified using the following procedure: harvested cell pellet was re-suspended in 20 mM Tris (pH 8.0), 500 mM NaCl, 0.1% β-mercaptoethanol, and 1 mM PMSF. Cells were lysed by sonicating for 15 seconds with 6 second intervals for a total time of 15 minutes on an ice bath. […] The 6His-sumo tag was cleaved from the column by adding Ubiquitin-like-specific protease 1 (ULP-1) at 4° C. for 12 hours. Wash buffer was then run through the Ni^+ column again and the elution buffer collected. Subsequently, advanced protein purification was done by HiTrap Q HP sequential Superdex 200 10/300 GL. Elute of every step was analyzed by SDS PAGE, stained by Coomassie brilliant blue (CBB). […] The reaction was incubated at room temperature for 30 min, and stopped by TFA. 1 μL of the sample was mixed with CHCA matrix and m/z peaks were obtained at reflection positive mode. The results of mass spectrum were analyzed using the Bruker flex analysis software and data processing was carried out as described below. MALDI-TOF based experiments were performed according to the protocol developed by Chang et al. (Nat. Struct. Mol. Biol. 2009, 16, 312-317). MALDI spectra were collected using Bruker flex control software and analyzed by flex analysis. After labelling each cluster peaks of H3K9Me0, H3K9Me1 and H3K9Me2 for all of the tested concentrations, area under the cluster (AUC) were extracted by using the same flex analysis software. % abundance of each peak was calculated by following formula: A=% Abundance of (H3K9Me0)=area of H3K9Me0/(area of H3K9Me0+area of H3K9Me1+area of H3K9Me2) B=% Abundance of (H3K9Me1)=area of H3K9Me1/(area of H3K9Me0+area of H3K9Me1+area of H3K9Me2) C=% Abundance of (H3K9Me2)=area of H3K9Me2/(area of H3K9Me0+area of H3K9Me1+area of H3K9Me2). This was repeated for each spectra (3 multiples for each samples). […] Finally % inhibition was found by subtracting % MA(i) from 100. […] A biochemical assay using MALDI-TOF was used to visualize the effects of the synthesized compounds on G9a enzymatic activity. […] Struct. Mol. Biol. 2009, 16, 312-317).

Another test deals with T2, G9a (Homo sapiens, UniProt Q96KQ7).
T2 construct: endogenous in cells; host or cells: MDA-MB-231
T2 sequence (Q96KQ7 1-1210): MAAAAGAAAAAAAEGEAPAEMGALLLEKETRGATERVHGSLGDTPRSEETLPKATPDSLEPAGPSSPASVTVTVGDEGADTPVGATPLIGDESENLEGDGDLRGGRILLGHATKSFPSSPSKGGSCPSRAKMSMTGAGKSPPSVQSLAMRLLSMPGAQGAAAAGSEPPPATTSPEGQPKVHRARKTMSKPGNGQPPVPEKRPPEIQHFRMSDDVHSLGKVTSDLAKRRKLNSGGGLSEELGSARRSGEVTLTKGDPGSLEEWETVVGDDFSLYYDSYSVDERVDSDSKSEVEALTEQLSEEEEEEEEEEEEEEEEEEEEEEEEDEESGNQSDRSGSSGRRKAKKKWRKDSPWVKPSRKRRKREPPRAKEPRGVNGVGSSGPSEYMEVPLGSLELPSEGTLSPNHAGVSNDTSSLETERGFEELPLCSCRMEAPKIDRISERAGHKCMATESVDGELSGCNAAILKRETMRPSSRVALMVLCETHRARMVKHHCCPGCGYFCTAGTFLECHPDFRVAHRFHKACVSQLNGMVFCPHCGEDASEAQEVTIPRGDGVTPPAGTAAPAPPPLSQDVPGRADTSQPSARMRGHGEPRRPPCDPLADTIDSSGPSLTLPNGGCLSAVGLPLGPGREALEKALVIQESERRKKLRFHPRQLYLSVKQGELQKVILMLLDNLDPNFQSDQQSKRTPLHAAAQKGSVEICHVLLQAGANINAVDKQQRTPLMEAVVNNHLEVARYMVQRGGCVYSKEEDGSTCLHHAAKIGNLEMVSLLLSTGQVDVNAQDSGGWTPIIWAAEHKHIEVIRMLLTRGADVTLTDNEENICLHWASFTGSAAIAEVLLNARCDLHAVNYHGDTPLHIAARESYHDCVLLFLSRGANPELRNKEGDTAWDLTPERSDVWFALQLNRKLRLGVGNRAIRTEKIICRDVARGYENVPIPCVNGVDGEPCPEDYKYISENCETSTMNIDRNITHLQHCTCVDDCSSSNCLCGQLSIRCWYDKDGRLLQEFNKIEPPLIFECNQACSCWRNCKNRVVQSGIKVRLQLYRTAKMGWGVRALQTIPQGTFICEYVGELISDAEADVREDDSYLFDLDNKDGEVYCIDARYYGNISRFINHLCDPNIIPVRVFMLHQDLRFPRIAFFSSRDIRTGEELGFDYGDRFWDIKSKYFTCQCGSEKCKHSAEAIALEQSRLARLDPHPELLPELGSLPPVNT
The test can be described thus: H3K9Me2 cell immunofluorescence in-cell Western (ICW) assay. The format is cell-based. The conditions noted are these: MDA-MB-231 cell line, 48 h. The method, then: After the incubation, the media was removed and 100 μl fixation and permeabilization solution (2% formaldehyde in PBS) for fixation was added for 30 min. And then use 200 μl 0.1% Triton X100 in PBS washing solution to wash (allow wash to shake on a plate shaker for 5 minutes). After five washes, cells were blocked for 1 h with 150 μl blocking buffer to each well (1% BSA in PBS) (allow blocking at RT with moderate shaking on a plate shaker). After 1 h, remove the blocking buffer from the blocking step and add primary antibody in blocking buffer to cover the bottom of each well. […] The plates were read on an Odyssey CLX (LiCor) scanner at both 800 nm (H3K9me2 signal) and 700 nm (cell tag 700 stain signal) channels. IC50s were calculated using GraphPad Prizm statistical package with sigmoidal variable slope dose response curve fit.

Another test has as its system A549. Description: Cytotoxicity / anti-proliferation assay (CCK-8), A549. The settings on record: Homo sapiens, 72 h, CCK-8 kit. The format is cell-based. How it is done:
(§1) Then the cells were exposed to the different inhibitors with various concentrations for 72 h. […] EC50s were calculated using GraphPad Prizm statistical package with sigmoidal variable slope dose response curve fit.
(§2) Cell anti-proliferation assays were performed to determine the toxicity of these inhibitors. […] These compounds were further evaluated against the control cell line HEK293 to test their toxicity with a non-cancerous cell line.
On the technique in general: Tetrazolium assays rely on reduction of a dye to a coloured formazan, in cell work by metabolically active cells.

Another test concerns HCT-8. Description: Cytotoxicity / anti-proliferation assay (CCK-8), HCT-8. The format is cell-based. The conditions noted are these: Homo sapiens, 72 h, CCK-8 kit. How it is done: as §1, §2
Test [2] concerns HDAC. Description: Cell based homogenous HDAC assay, Hela. The conditions noted are these: read-out: IC50-HDAC Hela; Hela cells, mean ± SD of triplicate.
Method: (§3) After 24 h, 9 μl inhibitors with different concentration were added to the HeLa cells and incubation was continued for 3 h under cell culture conditions. After this treatment period, 10 μl of a 2 mM stock solution of the substrate Boc-K(Ac)-AMC was added into the 96 well plates with Hela cells and inhibitors. […] A549 and K562 cell lines used the same method, respectively. IC50s were calculated using GraphPad Prizm statistical package with sigmoidal variable slope dose response curve fit.
(§4) Boc-K(Ac)-AMC was used as a cell-permeable HDAC substrate, as after deacetylation it is cleaved by trypsin to release the florescent 7-amino-4-methylcoumarin (AMC).
The test system of test [3] is HDAC. The test can be described thus: Cell based homogenous HDAC assay, A549. The settings on record: read-out: IC50-HDAC A549; A549 cells, mean ± SD of triplicate.
Method: as §3, §4
The test system of test [4] is HDAC. The test can be described thus: Cell based homogenous HDAC assay, K562. The settings on record: read-out: IC50-HDAC K562; K562 cells, mean ± SD of triplicate.
Method: as §3, §4

`COc1cc2nc(NCCNC(=O)CCCCCC(=O)NO)nc(NC3CCN(C(C)C)CC3)c2cc1OC` [Compound 5a, N1-hydroxy-N7-(2-((4-((1-isopropylpiperidin-4-yl)amino)-6,7-dimethoxyquinazolin-2-yl)amino)ethyl)heptanediamide]: the inhibition – broadly, the share of the control response that was lost under treatment – at 5 µM in test [1] was determined as 47.5 ± 9.32%. The IC50 – broadly, the concentration at which inhibition is half-maximal – against G9a was 66.6 ± 3.98 µM; with HDAC [2], above 100 µM; in the test with HDAC [3] it was above 100 µM; in the test with HDAC [4], above 100 µM. In addition, the EC50 in the test on A549 and with HCT-8 was above 100 µM in each case.

In test [1], `COc1cc2nc(NCCNC(=O)CCCCC(=O)NO)nc(NC3CCN(C(C)C)CC3)c2cc1OC` [Compound 6a, N1-hydroxy-N6-(2-((4-((1-isopropylpiperidin-4-yl)amino)-6,7-dimethoxyquinazolin-2-yl)amino)ethyl)adipamide] came in with an inhibition at 5 µM of 50.6 ± 16.5%. The IC50 on G9a, in the test on HDAC [2], in the test on HDAC [3] and in the test on HDAC [4] was above 100 µM throughout. In addition, the EC50 in the test with A549 and in the test on HCT-8 was above 100 µM each time.

The compound `COc1cc2c(NC3CCN(C(C)C)CC3)nc(N3CCCN(C)CC3)nc2cc1OCCCCCCC(=O)NO` [Compound 26, N-hydroxy-7-((4-((1-isopropylpiperidin-4-yl)amino)-6-methoxy-2-(4-methyl-1,4-diazepan-1-yl)quinazolin-7-yl)oxy)heptanamide] returned an inhibition at 5 µM in test [1] of 35.6 ± 0.88%. In addition, the IC50 at G9a was 27.4 ± 3.59 µM; in the test on HDAC [2], above 100 µM; in the test with HDAC [3], above 100 µM; in the test on HDAC [4] it was above 100 µM. Also, the EC50 in the test with A549 and in the test on HCT-8 was above 100 µM each time.

In test [1], `COc1cc2nc(NCCNC(=O)CCCCCCC(=O)NO)nc(NC3CCN(C)CC3)c2cc1OC` [Compound 4, N1-(2-((6,7-dimethoxy-4-((1-methylpiperidin-4-yl)amino)quinazolin-2-yl)amino)ethyl)-N8-hydroxyoctanediamide] yielded an inhibition at 5 µM of 27 ± 12.2%. The IC50 against G9a was 96.7 ± 1.68 µM; in the test on HDAC [2] it was above 100 µM; in the test on HDAC [3], above 100 µM; in the test on HDAC [4], above 100 µM. In addition, the EC50 in the test on A549 and in the test on HCT-8 was above 100 µM throughout.

`COc1cc2nc(NCCNC(=O)CCCCCCC(=O)NO)nc(NC3CCN(C(C)C)CC3)c2cc1OC` [Compound 4a, N1-hydroxy-N8-(2-((4-((1-isopropylpiperidin-4-yl)amino)-6,7-dimethoxyquinazolin-2-yl)amino)ethyl)octanediamide] displayed an inhibition at 5 µM in test [1] of 11.2 ± 3.68%. The IC50 was 74.2 ± 1.94 µM against G9a, above 100 µM in the test with HDAC [2], above 100 µM in the test with HDAC [3] and above 100 µM in the test on HDAC [4]. Moreover, the EC50 with A549 and with HCT-8 was above 100 µM in each case.

As for `COc1cc2nc(NCCNC(=O)CCCC(=O)NO)nc(NC3CCN(C)CC3)c2cc1OC` [Compound 7, N1-(2-((6,7-dimethoxy-4-((1-methylpiperidin-4-yl)amino)quinazolin-2-yl)amino)ethyl)-N5-hydroxyglutaramide], the inhibition at 5 µM in test [1] came to 19.6 ± 20.9%. Also, the IC50 against G9a is 76.7 ± 0.89 µM; in the test on HDAC [2], above 100 µM; in the test with HDAC [3], above 100 µM; in the test with HDAC [4], above 100 µM. For the same compound, the EC50 with A549 and in the test with HCT-8 was above 100 µM each time.

`COc1cc2nc(NCCNC(=O)CCCC(=O)NO)nc(NC3CCN(C(C)C)CC3)c2cc1OC` [Compound 7a, N1-hydroxy-N5-(2-((4-((1-isopropylpiperidin-4-yl)amino)-6,7-dimethoxyquinazolin-2-yl)amino)ethyl)glutaramide] returned an inhibition at 5 µM in test [1] of 15 ± 15.7%. Also, the IC50 was 54.6 ± 3.05 µM on G9a, above 100 µM in the test on HDAC [2], above 100 µM in the test on HDAC [3] and above 100 µM in the test on HDAC [4]. The EC50 in the test with A549 and in the test with HCT-8 was above 100 µM in each case.

The compound `COc1cc2nc(NCCNC(=O)CCCCCC(=O)NO)nc(NC3CCN(C)CC3)c2cc1OC` [Compound 5, N1-(2-((6,7-dimethoxy-4-((1-methylpiperidin-4-yl)amino)quinazolin-2-yl)amino)ethyl)-N7-hydroxyheptanediamide] registered an inhibition at 5 µM in test [1] of 65 ± 1.95%. The IC50 on G9a, in the test on HDAC [2], in the test with HDAC [3] and with HDAC [4] was above 100 µM each time. For the same compound, the EC50 in the test with A549 and in the test with HCT-8 was above 100 µM in each case.
